Test results: ChEMBL document CHEMBL1201862, “PubChem BioAssay data set” (2004)
Calls of active or inactive are those of the source.

Experiments:
[1] = biological target: T1, Mitochondrial peptide methionine sulfoxide reductase (Bos taurus, UniProt P54149); experiment: Absorbance-based biochemical high throughput dose response assay for activators of Methionine sulfoxide reductase A (MsrA).; assay type: functional
T1 sequence (P54149 whole entry): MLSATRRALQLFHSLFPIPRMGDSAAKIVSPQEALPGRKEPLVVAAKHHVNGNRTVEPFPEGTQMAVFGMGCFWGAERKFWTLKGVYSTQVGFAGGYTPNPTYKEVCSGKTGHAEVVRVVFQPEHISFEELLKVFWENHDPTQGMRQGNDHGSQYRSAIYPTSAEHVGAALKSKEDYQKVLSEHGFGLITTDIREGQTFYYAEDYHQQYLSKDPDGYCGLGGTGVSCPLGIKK

[2] = tested on: HEK293; experiment: cells; conditions: Homo sapiens
[3] = biological target: T2, DNA repair protein RAD52 homolog (Homo sapiens, UniProt P43351); assay type: functional, biochemical
T2 sequence (P43351 whole entry): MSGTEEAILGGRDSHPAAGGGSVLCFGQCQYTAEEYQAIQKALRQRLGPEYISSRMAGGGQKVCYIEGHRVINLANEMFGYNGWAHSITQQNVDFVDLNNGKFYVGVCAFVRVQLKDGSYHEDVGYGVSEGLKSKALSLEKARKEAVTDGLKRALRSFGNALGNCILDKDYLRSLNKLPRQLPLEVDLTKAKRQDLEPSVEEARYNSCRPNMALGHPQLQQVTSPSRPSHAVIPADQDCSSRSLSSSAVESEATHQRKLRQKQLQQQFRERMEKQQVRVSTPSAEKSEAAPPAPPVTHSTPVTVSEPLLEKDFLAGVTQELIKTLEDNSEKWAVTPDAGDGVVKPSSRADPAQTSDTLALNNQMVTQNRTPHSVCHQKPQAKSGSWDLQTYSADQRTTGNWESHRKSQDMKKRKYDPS

[4] = Counterscreen for activators of the function of SWI/SNF related, matrix associated, actin dependent regulator of chromatin, subfamily a, member 2 (SMARCA2, BRM): Luminescence-based cell-based high throughput dose response assay to identify non-selective compounds using the VP16 reporter assay.; assay type: functional
[5] = tested on: HEK293; experiment: cells; conditions: Homo sapiens; remark: listed apart in the source
[6] = biological target: SWI/SNF-related matrix-associated actin-dependent regulator of chromatin subfamily A member 2 (Homo sapiens, UniProt P51531); experiment: Luminescence-based cell-based high throughput dose response assay to identify activators of the function of SWI/SNF related, matrix associated, actin dependent regulator of chromatin, subfamily a, member 2 (SMARCA2, BRM).; assay type: functional
[7] = human group III sPLA2 inhibitors, dose response, biochemical, QFRET, IC50 (AID 743457);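 also: green fluorescence rise as the enzyme cleaves BODIPY PC-A2 in liposomes; potency for inhibition of the enzyme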
[8] = biological target: T3, ATP-dependent translocase ABCB1 (Homo sapiens, UniProt P08183); experiment: ABCB1 efflux inhibitor potency, dose response, Jurkat-DNR cells, JC-1, flow cytometry, set 2 (AID 504569); assay type: functional; conditions: read-out: EC50_MICROM_;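 also: potency of pump inhibitors that raise cellular JC-1 green fluorescence up to the nicardipine level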
[9] = biological target: T3, ATP-dependent translocase ABCB1; experiment: ABCG2 efflux pump inhibitor potency, dose response, Ig-MXP3 cells, JC-1, flow cytometry, set 2 (AID 504566); assay type: functional; conditions: read-out: EC50_MICROM_;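 also: flow cytometry median green fluorescence of retained JC-1 dye; potency of efflux pump inhibition measured as rising substrate retention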
[10] = tested on: H9c2; experiment: cells; assay type: functional, cell-based; conditions: Rattus norvegicus, H9c2, Myocardium;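 also: confirmatory concentration-response retest of ultra-high-throughput screening hits for modulation of myocardial damage; cell death induced by hydrogen peroxide oxidative stress; compound pretreatment for 60 min then peroxide exposure for 2 h; potency is for protecting the cells against peroxide damage rather than for killing them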
[11] = HEK293T cytotoxicity, dose response, cytotoxicity control for miR-122 modulator project, cell-based, activator set, cherry-pick (AID 720690); assay type: functional;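 also: HEK293T human cells scored for general mammalian cytotoxicity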
[12] = miR-122 activators in hepatoma reporter cells, dose response, cell-based, Huh7 psiCHECK-miR122, Renilla luciferase, cherry-picked (AID 651956); assay type: functional;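 also: huh7 hepatoma cells stably carrying a psiCHECK-2 miR-122 sensor plasmid; renilla luciferase signal reporting endogenous miR-122 activity after 48 h compound exposure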
[13] = NIH/3T3 fibroblast cytotoxicity, dose response, cytotoxicity control for T. cruzi growth inhibitor project, cell-based, cherry-pick samples, set 2 (AID 651817); assay type: functional; conditions: NIH3T3
[14] = LMP1-driven NF-kB reporter inhibition, dose response, cell-based, luciferase reporter, luminescence, dry powder, set 2 (AID 624376); assay type: functional
[15] = inhibitors of TNFa-stimulated NF-kB luciferase reporter, dose response, selectivity assay for EBV LMP1 NF-kB inhibitor project, HEK293 LMP1 reporter cells, dry powder, set 2 (AID 624369); assay type: functional
[16] = LGR2 antagonists, dose response, cell-based, HEK293, CRE-luciferase reporter, cherry pick (AID 743342); assay type: functional
[17] = A549 cell cytotoxicity, dose response, cytotoxicity control, plate reader, cherry-pick, antagonist series (AID 743412); assay type: functional, cell-based
[18] = MC4R antagonists, dose response, counter-screen for LGR2 antagonist project, cell-based, plate reader, cherry pick (AID 743444); assay type: functional;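 also: transfected HEK 293 cells stimulated with alpha-MSH peptide; potency of inhibitors of the alpha-MSH evoked signal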

T3 sequence (P08183 whole entry): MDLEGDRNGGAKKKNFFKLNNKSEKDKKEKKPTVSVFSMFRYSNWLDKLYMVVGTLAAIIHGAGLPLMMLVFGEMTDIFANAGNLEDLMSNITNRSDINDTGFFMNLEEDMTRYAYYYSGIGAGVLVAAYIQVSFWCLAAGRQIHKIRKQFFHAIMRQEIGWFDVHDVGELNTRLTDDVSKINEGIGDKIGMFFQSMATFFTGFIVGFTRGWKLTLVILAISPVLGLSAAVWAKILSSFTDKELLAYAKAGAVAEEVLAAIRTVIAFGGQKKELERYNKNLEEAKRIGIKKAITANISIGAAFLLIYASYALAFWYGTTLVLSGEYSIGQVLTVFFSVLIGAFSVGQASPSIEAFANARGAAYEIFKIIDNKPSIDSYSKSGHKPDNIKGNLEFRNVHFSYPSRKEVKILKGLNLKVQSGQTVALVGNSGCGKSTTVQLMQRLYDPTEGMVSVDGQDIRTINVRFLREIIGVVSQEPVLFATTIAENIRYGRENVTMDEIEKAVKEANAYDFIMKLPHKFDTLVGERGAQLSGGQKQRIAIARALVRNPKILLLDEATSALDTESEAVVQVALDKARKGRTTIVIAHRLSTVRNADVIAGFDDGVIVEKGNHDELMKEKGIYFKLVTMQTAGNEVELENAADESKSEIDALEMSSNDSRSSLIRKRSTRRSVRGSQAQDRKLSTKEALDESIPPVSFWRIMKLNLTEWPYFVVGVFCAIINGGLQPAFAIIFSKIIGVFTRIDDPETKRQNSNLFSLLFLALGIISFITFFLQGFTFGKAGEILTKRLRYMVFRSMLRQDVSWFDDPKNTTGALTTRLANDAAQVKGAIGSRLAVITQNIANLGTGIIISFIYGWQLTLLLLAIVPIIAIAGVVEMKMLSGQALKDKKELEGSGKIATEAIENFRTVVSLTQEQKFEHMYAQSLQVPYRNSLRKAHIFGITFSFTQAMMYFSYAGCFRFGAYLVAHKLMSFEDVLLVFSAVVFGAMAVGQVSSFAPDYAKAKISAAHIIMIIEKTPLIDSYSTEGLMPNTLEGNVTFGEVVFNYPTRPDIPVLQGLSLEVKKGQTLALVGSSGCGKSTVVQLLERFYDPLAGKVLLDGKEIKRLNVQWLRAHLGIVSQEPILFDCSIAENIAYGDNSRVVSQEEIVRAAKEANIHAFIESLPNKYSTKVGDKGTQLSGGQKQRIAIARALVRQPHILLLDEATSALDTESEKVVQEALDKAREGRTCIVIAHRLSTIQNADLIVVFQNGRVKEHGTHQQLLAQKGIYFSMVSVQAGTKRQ
Chain of SWI/SNF-related matrix-associated actin-dependent regulator of chromatin subfamily A member 2 (P51531 whole entry): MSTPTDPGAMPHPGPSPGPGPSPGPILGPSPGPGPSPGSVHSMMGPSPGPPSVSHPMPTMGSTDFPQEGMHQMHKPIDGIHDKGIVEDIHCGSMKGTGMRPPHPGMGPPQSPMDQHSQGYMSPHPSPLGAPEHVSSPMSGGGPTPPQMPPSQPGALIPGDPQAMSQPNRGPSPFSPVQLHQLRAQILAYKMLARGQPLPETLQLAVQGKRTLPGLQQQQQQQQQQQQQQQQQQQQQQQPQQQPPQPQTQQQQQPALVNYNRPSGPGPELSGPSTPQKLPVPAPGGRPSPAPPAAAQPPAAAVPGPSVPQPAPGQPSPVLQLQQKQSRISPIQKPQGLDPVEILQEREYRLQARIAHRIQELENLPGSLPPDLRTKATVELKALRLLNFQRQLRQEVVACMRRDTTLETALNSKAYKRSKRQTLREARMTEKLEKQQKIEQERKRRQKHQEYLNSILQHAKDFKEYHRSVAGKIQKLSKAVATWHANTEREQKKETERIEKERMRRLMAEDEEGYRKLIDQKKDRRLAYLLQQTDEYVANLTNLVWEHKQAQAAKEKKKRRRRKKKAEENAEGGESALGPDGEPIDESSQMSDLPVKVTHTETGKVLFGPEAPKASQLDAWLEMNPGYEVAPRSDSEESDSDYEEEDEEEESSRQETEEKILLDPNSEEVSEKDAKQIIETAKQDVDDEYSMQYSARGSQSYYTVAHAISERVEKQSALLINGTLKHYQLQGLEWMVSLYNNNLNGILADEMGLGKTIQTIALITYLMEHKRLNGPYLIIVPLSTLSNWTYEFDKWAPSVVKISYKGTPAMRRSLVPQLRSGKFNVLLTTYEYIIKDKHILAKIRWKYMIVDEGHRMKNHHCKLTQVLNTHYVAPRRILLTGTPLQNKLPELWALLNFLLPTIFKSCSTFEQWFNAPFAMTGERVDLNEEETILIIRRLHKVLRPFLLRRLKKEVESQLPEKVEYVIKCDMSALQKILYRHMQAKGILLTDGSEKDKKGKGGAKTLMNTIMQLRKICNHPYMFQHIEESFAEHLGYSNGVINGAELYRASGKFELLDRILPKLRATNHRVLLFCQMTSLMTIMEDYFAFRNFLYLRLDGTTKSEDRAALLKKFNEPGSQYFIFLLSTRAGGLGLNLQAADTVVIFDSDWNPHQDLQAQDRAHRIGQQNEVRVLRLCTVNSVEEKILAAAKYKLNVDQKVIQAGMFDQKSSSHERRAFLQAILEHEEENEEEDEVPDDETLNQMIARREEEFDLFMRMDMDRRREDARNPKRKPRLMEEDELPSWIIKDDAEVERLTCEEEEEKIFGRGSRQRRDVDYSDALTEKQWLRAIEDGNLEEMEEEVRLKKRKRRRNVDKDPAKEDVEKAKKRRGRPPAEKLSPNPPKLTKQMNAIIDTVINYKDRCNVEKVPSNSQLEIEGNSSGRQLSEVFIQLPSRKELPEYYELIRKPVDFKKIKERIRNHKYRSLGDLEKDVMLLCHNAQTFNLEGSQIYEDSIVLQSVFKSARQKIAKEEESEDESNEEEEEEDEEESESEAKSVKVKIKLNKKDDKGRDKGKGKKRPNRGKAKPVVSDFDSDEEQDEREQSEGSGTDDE

SMILES: COc1ccc(OC)c2nc3c(C(=O)NCCN(C)C)cccc3nc12
- EC50 [1]: 46.5 µM (inactive)
- EC50 [2]: > 59.7 µM (inactive)
- AC50 [3]: 0.59 µM (active)
- EC50 [4]: > 91.1 µM (inactive)
- EC50 [5]: > 6.63 µM (active)
- EC50 [6]: 10.2 µM (inactive)

SMILES: Sc1nnc(COc2ccccc2)n1-c1ccc(Cl)cc1
- IC50 [7]: > 122 µM (inactive)

SMILES: COc1ccccc1-c1cc2nc(-c3ccccc3)cc(N3CCN(C(=O)c4ccoc4)CC3)n2n1
- EC50 [8]: 2.7 µM (active)
- EC50 [9]: 0.34 µM (active)
- IC50 [10]: > 79 µM (inactive)

SMILES: C[C@H]1CCCCO[C@H](CN(C)Cc2ccc3c(c2)OCO3)[C@@H](C)CN([C@@H](C)CO)C(=O)c2cc(NC(=O)Nc3cccc4ccccc34)ccc2O1
- AC50 [11]: 10 µM (active)
- AC50 [12]: 10 µM (active)

SMILES: C[C@H]1CN([C@@H](C)CO)C(=O)c2cccc(NC(=O)Nc3ccc(C(F)(F)F)cc3)c2O[C@H]1CN(C)Cc1ccc(Cl)c(Cl)c1
- AC50 [13]: 13.6 µM (active)

SMILES: COc1ccc(S(=O)(=O)N(C)C[C@@H]2Oc3ncc(/C=C/c4ccccc4)cc3C(=O)N([C@@H](C)CO)C[C@H]2C)cc1
- AbsAC35 [14]: 47.67 µM
- AbsAC35 [15]: 77.19 µM

SMILES: C[C@H](CO)N1C[C@H](C)[C@H](CN(C)C(=O)Nc2cccc3ccccc23)OCCCC[C@H](C)Oc2ccc(NC(=O)CCC(F)(F)F)cc2C1=O
- AC50 [16]: 4.02 µM (active)
- AC50 [17]: 35 µM (active)
- AC50 [18]: 2.95 µM (active)
